From ChEMBL document CHEMBL1150602, “Novel diterpene lactones from Suregada multiflora” (2002)

What was measured:
[1] = tested on: Saccharomyces cerevisiae; assay: DNA damaging activity against DNA repair-proficient yeast RAD+ assessed as drug concentration required to produce 12 mm zone of inhibition; format: functional
[2] = tested on: Saccharomyces cerevisiae; assay: DNA damaging activity against DNA repair-deficient yeast RAD52 mutant assessed as drug concentration required to produce 12 mm zone of inhibition; format: functional

| Compound | IC12 [1] [µg/mL] | IC12 [2] [µg/mL] |
| --- | --- | --- |
| COC1=C(N)C(=O)c2nc(-c3nc(C(=O)O)c(C)c(-c4ccc(OC)c(OC)c4O)c3N)ccc2C1=O [STREPTONIGRIN] | > 1 | 0.4 |
| CC1=C2[C@@H](O)[C@]3(O)CC[C@@H]4[C@@]5(C)C[C@H]5CC[C@@]4(C)[C@@H]3C[C@H]2OC1=O [SUREGADOLIDE A] | 70 | 35 |
